Data: patent US20250144067A1, “PERSONALIZED STARVATION THERAPY FOR CANCER” (Faeth Therapeutics, Inc., priority 2021, published 2025)
Counter-ions that a name gives are not always drawn.

Tests used:
[1] = test system: NCI-H292 lung cancer cells; test: FDA drug screening, complete media vs cholesterol-free media with simvastatin (TABLE 2); assay type: cell-based, human; settings: for Cholesterol-free media + simvastatin (0.04 μM) / Complete Media: NCI-H292 cells
[2] = test system: NCI-H292 lung cancer cells; test: FDA drug screening, complete media vs cholesterol-free media without statin (TABLE 1); assay type: cell-based, human
[3] = cholesterol-free media with simvastatin 0.04 μM, cell growth value in FDA drug screen
[4] = complete media, cell growth value in FDA drug screen
[5] = complete media minus cholesterol-free media + simvastatin, >0 enhanced anti-cancer activity, about 0 neutral, <0 antagonist
[6] = Complete minus Cholesterol-free, >0 enhanced anti-cancer activity, about 0 neutral, <0 antagonist
[7] = NCI-H292 cells, cholesterol-free media without statin
[8] = FDA drug library screen, cholesterol-free media with simvastatin 0.04 μM
[9] = FDA drug library screen, complete media
[10] = NCI-H292 cells, cholesterol-free media without statin, FDA drug library screen
[11] = NCI-H292 cells, complete media, FDA drug library screen
[12] = complete vs cholesterol-free media, >0 enhanced anti-cancer activity, about 0 neutral, <0 antagonist
[13] = cholesterol-free media with simvastatin 0.04 μM, FDA drug library screen (TABLE 2)
[14] = complete media, FDA drug library screen (TABLE 2)
[15] = complete media minus cholesterol-free media + simvastatin (0.04 μM), >0 enhanced anti-cancer activity, about 0 neutral, <0 antagonist
[16] = Complete minus Cholesterol-free, greater than 0 enhanced anti-cancer activity, about 0 neutral, below 0 antagonist
[17] = NCI-H292 cells, FDA drug library screen, cholesterol-free media without statin
[18] = NCI-H292 cells, FDA drug library screen, complete media
[19] = FDA library drug in cholesterol-free media with simvastatin 0.04 μM
[20] = FDA library drug in complete media
[21] = complete media vs cholesterol-free media + simvastatin (0.04 μM), >0 enhanced anti-cancer activity, about 0 neutral, <0 antagonist
[22] = complete media minus cholesterol-free media + simvastatin, […]
[23] = drug in cholesterol-free media with simvastatin 0.04 μM
[24] = Complete minus Cholesterol-free, greater than 0 enhanced anti-cancer activity, about 0 neutral, below 0 antagonists
[25] = NCI-H292 cells in cholesterol-free media without statin
[26] = NCI-H292 cells in complete media
[27] = complete vs cholesterol-free media, […]

Compound: O=c1c(-c2ccc(O)cc2)coc2c([C@@H]3O[C@H](CO)[C@@H](O)[C@H](O)[C@H]3O)c(O)ccc12 [Puerarin]
- Cholesterol-free media + simvastatin (0.04 μM) [1, 3]: 0.9456
- Complete Media [1, 4]: 1.081
- Difference [1, 5]: 0.14
- Difference [2, 6]: −0.27
- Cholesterol-free [2, 7]: 1.203
- Complete ([2]; NCI-H292 cells, complete media): 0.9306

Compound: CCOC(=O)C1=C(COCCN)NC(C)=C(C(=O)OC)C1c1ccccc1Cl (stereo not shown) [Amlodipine]
- Cholesterol-free media + simvastatin (0.04 μM) [1, 8]: 1.424
- Complete Media [1, 9]: 1.705
- Difference [1, 5]: 0.28
- Cholesterol-free [2, 10]: 0.797
- Complete [2, 11]: 1.434
- Difference [2, 12]: 0.64

Compound: CC(C)NCC(O)COc1ccc(CCOCC2CC2)cc1 (stereo not shown) [Betaxolol]
- Cholesterol-free media + simvastatin (0.04 μM) [1, 13]: 0.941
- Complete Media [1, 14]: 0.9172
- Difference [1, 15]: −0.02
- Difference [2, 16]: −0.10
- Cholesterol-free [2, 17]: 1.183
- Complete [2, 18]: 1.079

Compound: CC(=O)OCC(=O)[C@@]12OC3(CCCC3)O[C@@H]1C[C@H]1[C@@H]3CCC4=CC(=O)C=C[C@]4(C)[C@@]3(F)[C@@H](O)C[C@@]12C [Amcinonide]
- Cholesterol-free media + simvastatin (0.04 μM) [1, 8]: 0.5029
- Complete Media [1, 9]: 0.766
- Difference [1, 5]: 0.26
- Difference [2, 16]: −0.16
- Cholesterol-free [2, 17]: 1.081
- Complete [2, 18]: 0.9188

Compound: COc1ccc(O)cc1 [Mequinol]
- Cholesterol-free media + simvastatin (0.04 μM) [1, 19]: 1.22
- Complete Media [1, 20]: 0.8263
- Difference [1, 21]: −0.39
- Difference [2, 6]: −0.26
- Cholesterol-free [2, 7]: 0.8829
- Complete ([2]; NCI-H292 cells, complete media): 0.6277

Compound: Isoconazole (nitrate)
- Cholesterol-free media + simvastatin (0.04 μM) [1, 8]: 0.3001
- Complete Media [1, 9]: 0.7337
- Difference [1, 22]: 0.43
- Difference ([2]; Complete minus Cholesterol-free, […]): −0.15
- Cholesterol-free [2, 17]: 1.53
- Complete [2, 18]: 1.383

Compound: CC(=O)OCC(=O)[C@@]1(O)CC[C@H]2[C@@H]3CCC4=CC(=O)CC[C@]4(C)[C@@]3(F)[C@@H](O)C[C@@]21C [Fludrocortisone acetate]
- Cholesterol-free media + simvastatin (0.04 μM) [1, 3]: 0.45
- Complete Media [1, 4]: 0.5624
- Difference [1, 5]: 0.11
- Difference [2, 6]: −0.30
- Cholesterol-free [2, 7]: 0.7353
- Complete ([2]; NCI-H292 cells, complete media): 0.437

Compound: C[C@@H]1[C@H](O)[C@@H](C)/C=C/C=C/C=C/C=C/C=C/C=C/C=C/[C@H](O[C@@H]2O[C@H](C)[C@@H](O)[C@H](N)[C@@H]2O)C[C@@H]2O[C@](O)(C[C@@H](O)C[C@@H](O)[C@H](O)CC[C@@H](O)C[C@@H](O)CC(=O)O[C@H]1C)C[C@H](O)[C@H]2C(=O)O [Amphotericin B]
- Cholesterol-free media + simvastatin (0.04 μM) [1, 23]: 1.212
- Complete Media ([1]; drug in complete media): 0.9521
- Difference [1, 21]: −0.26
- Difference [2, 6]: 0.05
- Cholesterol-free [2, 10]: 1.082
- Complete [2, 11]: 1.128

Compound: CCCC(=O)Nc1ncnc2c1ncn2[C@@H]1O[C@@H]2COP(=O)(O)O[C@H]2[C@H]1OC(=O)CCC [Bucladesine (calcium)]
- Cholesterol-free media + simvastatin (0.04 μM) [1, 13]: 0.8302
- Complete Media [1, 14]: 0.804
- Difference [1, 15]: −0.03
- Difference [2, 16]: −0.13
- Cholesterol-free [2, 17]: 0.8949
- Complete [2, 18]: 0.7629

Compound: COc1cc2nc(N3CCN(C(=O)c4ccco4)CC3)nc(N)c2cc1OC [Prazosin (hydrochloride)]
- Cholesterol-free media + simvastatin (0.04 μM) [1, 8]: 1.23
- Complete Media [1, 9]: 1.079
- Difference [1, 21]: −0.15
- Difference [2, 24]: −0.52
- Cholesterol-free [2, 25]: 1.627
- Complete [2, 26]: 1.105

Compound: CO[C@H]1O[C@H](COS(=O)(=O)O)[C@@H](O[C@@H]2O[C@@H](C(=O)O)[C@@H](O[C@H]3O[C@H](COS(=O)(=O)O)[C@@H](O[C@@H]4O[C@H](C(=O)O)[C@@H](O[C@H]5O[C@H](COS(=O)(=O)O)[C@@H](O)[C@H](O)[C@H]5NS(=O)(=O)O)[C@H](O)[C@H]4O)[C@H](OS(=O)(=O)O)[C@H]3NS(=O)(=O)O)[C@H](O)[C@H]2OS(=O)(=O)O)[C@H](O)[C@H]1NS(=O)(=O)O [Fondaparinux (sodium)]
- Cholesterol-free media + simvastatin (0.04 μM) [1, 19]: 1.182
- Complete Media [1, 20]: 0.8937
- Difference [1, 21]: −0.29
- Difference [2, 16]: −0.10
- Cholesterol-free [2, 17]: 1.098
- Complete [2, 18]: 1

Compound: Tocofersolan
- Cholesterol-free media + simvastatin (0.04 μM) [1, 8]: 0.3462
- Complete Media [1, 9]: 0.6285
- Difference [1, 22]: 0.28
- Cholesterol-free [2, 7]: 0.7811
- Complete ([2]; NCI-H292 cells, complete media): 0.4609
- Difference [2, 27]: −0.32

Compound: COc1cc(NCc2ccc3nc(N)nc(N)c3c2C)cc(OC)c1OC [Trimetrexate]
- Cholesterol-free media + simvastatin (0.04 μM) [1, 8]: 0.2201
- Complete Media [1, 9]: 0.1203
- Difference [1, 21]: −0.10
- Difference [2, 6]: −0.04
- Cholesterol-free [2, 10]: 0.1317
- Complete [2, 11]: 0.09583

Compound: C[C@@H]1CN(c2c(F)c(N)c3c(=O)c(C(=O)O)cn(C4CC4)c3c2F)C[C@H](C)N1 [Sparfloxacin]
- Cholesterol-free media + simvastatin (0.04 μM) [1, 8]: 0.949
- Complete Media [1, 9]: 1.118
- Difference [1, 5]: 0.17
- Difference [2, 24]: −0.52
- Cholesterol-free [2, 25]: 1.45
- Complete [2, 26]: 0.9275

Compound: Cl.Cl.[O-][S+]1c2ccccc2N=C(N2CCN(CCOCCO)CC2)c2ccccc21 (stereo not shown) [Quetiapine sulfoxide (dihydrochloride)]
- Cholesterol-free media + simvastatin (0.04 μM) [1, 8]: 1.184
- Complete Media [1, 9]: 1.082
- Difference [1, 21]: −0.10
- Cholesterol-free [2, 7]: 1.151
- Complete ([2]; NCI-H292 cells, complete media): 0.7759
- Difference ([2]; complete vs cholesterol-free media, greater than 0 enhanced anti-cancer activity, about 0 neutral, below 0 antagonists): −0.38

Compound: Cc1ccc(Nc2nccc(N(C)c3ccc4c(C)n(C)nc4c3)n2)cc1S(N)(=O)=O [Pazopanib (Hydrochloride)]
- Cholesterol-free media + simvastatin (0.04 μM) [1, 8]: 0.5325
- Complete Media [1, 9]: 1.206
- Difference [1, 5]: 0.67
- Difference [2, 16]: −0.12
- Cholesterol-free [2, 17]: 1.089
- Complete [2, 18]: 0.9723

Compound: O=C(CNC(=O)c1ccc(C2=NOC(c3cc(Cl)cc(C(F)(F)F)c3)(C(F)(F)F)C2)c2ccccc12)NCC(F)(F)F (stereo not shown) [Afoxolaner]
- Cholesterol-free media + simvastatin (0.04 μM) [1, 8]: 2.42
- Difference ([1]; complete media minus cholesterol-free media + simvastatin (0.04 μM), […]): −1.05
- Cholesterol-free [2, 10]: 1.008
- Complete [2, 11]: 1.19
- Difference [2, 27]: 0.18

Compound: COS(=O)(=O)[O-].C[N+]1(C)CCC(=C(c2ccccc2)c2ccccc2)CC1 [Diphenmanil (methylsulfate)]
- Cholesterol-free media + simvastatin (0.04 μM) [1, 19]: 2.109
- Complete Media [1, 20]: 1.508
- Difference ([1]; complete media vs cholesterol-free media + simvastatin (0.04 μM), […]): −0.60
- Cholesterol-free [2, 10]: 0.8176
- Complete [2, 11]: 0.9244
- Difference [2, 27]: 0.11

Compound: CC(=O)Oc1ccccc1C(=O)Nc1ncc([N+](=O)[O-])s1 [Nitazoxanide]
- Cholesterol-free media + simvastatin (0.04 μM) [1, 13]: 1.209
- Complete Media [1, 14]: 1.209
- Difference [1, 15]: 0.00
- Cholesterol-free [2, 10]: 1.033
- Difference [2, 12]: 0.12

Compound: CO[C@H]1/C=C/O[C@@]2(C)Oc3c(C)c(O)c4c(c3C2=O)C2=NC3(CCN(CC(C)C)CC3)NC2=C(NC(=O)/C(C)=C\C=C\[C@H](C)[C@H](O)[C@@H](C)[C@@H](O)[C@@H](C)[C@H](OC(C)=O)[C@@H]1C)C4=O [Rifabutin]
- Cholesterol-free media + simvastatin (0.04 μM) [1, 23]: 1.205
- Complete Media ([1]; drug in complete media): 0.9499
- Difference [1, 21]: −0.26
- Cholesterol-free [2, 10]: 0.7322
- Complete [2, 11]: 0.8211
- Difference [2, 12]: 0.09
